# Test results from the supplement of paper PMC13380429.
# Counter-ions that a name gives are not always drawn.
# Assays:
# Conditions in all cases: 72 h
# [1] = system: Caco-2; assay: cell viability relative to DMSO; higher = less toxic
# [2] = system: Calu-3; assay: as above
# [3] = system: HepG2; assay: as above
# [4] = system: U2OS; assay: as above
# [5] = system: Vero E6; assay: as above
# [6] = system: Caco-2; assay: relative viability EC50 (midpoint between 100% and the lowest measured viability); higher = less toxic
# [7] = system: Calu-3; assay: as above
# [8] = system: HepG2; assay: as above
# [9] = system: U2OS; assay: as above
# [10] = system: Vero E6; assay: as above
# [11] = system: Caco-2; assay: drug sensitivity score (DSS) for viability; higher = more toxic; extreme values may be limits of the assay
# [12] = system: Calu-3; assay: as above
# [13] = system: HepG2; assay: as above
# [14] = system: U2OS; assay: as above
# [15] = system: Vero E6; assay: as above
Structure (SMILES),cell viability ([1]; 1 nM),cell viability ([1]; 10 nM),cell viability ([1]; 100 nM),cell viability ([1]; 1000 nM),cell viability ([1]; 10000 nM),cell viability ([2]; 1 nM),cell viability ([2]; 10 nM),cell viability ([2]; 100 nM),cell viability ([2]; 1000 nM),cell viability ([2]; 10000 nM),cell viability ([3]; 1 nM),cell viability ([3]; 10 nM),cell viability ([3]; 100 nM),cell viability ([3]; 1000 nM),cell viability ([3]; 10000 nM),cell viability ([4]; 1 nM),cell viability ([4]; 10 nM),cell viability ([4]; 100 nM),cell viability ([4]; 1000 nM),cell viability ([4]; 10000 nM),cell viability ([5]; 1 nM),cell viability ([5]; 10 nM),cell viability ([5]; 100 nM),cell viability ([5]; 1000 nM),cell viability ([5]; 10000 nM),relative viability EC50 [6],relative viability EC50 [7],relative viability EC50 [8],relative viability EC50 [9],relative viability EC50 [10],drug sensitivity score [11],drug sensitivity score [12],drug sensitivity score [13],drug sensitivity score [14],drug sensitivity score [15]
N[C@H]1C[C@@H]1c1ccccc1 (racemic) [tranylcypromine],90.7%,106%,93.7%,104%,104%,92.5%,97.7%,97.6%,100%,99.7%,104%,103%,97%,98.5%,100%,96.6%,102%,97.7%,103%,103%,100%,99.8%,93.3%,97.1%,108%,> 10 µM,> 10 µM,> 10 µM,> 10 µM,> 10 µM,0,0,0,0,0
O=C(c1ccc(F)cc1)C1CCN(CCCCc2ccccc2)CC1 [4-(4-fluorobenzoyl)-1-(4-phenylbutyl)-piperidine],98.9%,99.6%,106%,90.4%,94.9%,104%,106%,87.9%,106%,85.8%,101%,96%,95.2%,101%,79.4%,99.4%,96.8%,96.8%,95.9%,98.2%,103%,105%,102%,98.9%,95.7%,> 10 µM,> 10 µM,> 10 µM,> 10 µM,> 10 µM,0,0.1,0.6,0,0
OCc1cncc(F)c1 [5-fluoro-3-pyridyl-methanol],96%,106%,102%,107%,106%,101%,97.2%,95.1%,99.3%,99.9%,106%,104%,109%,97.2%,102%,98.4%,105%,98.4%,104%,97.8%,104%,104%,102%,98.8%,105%,> 10 µM,> 10 µM,> 10 µM,> 10 µM,> 10 µM,0,0,0,0,0
N[C@@H](Cc1c[nH]c2ccc(O)cc12)C(=O)O [5-hydroxytryptophan],93.3%,94.5%,92.5%,88.8%,103%,93.6%,94.7%,94.1%,94.4%,107%,102%,97.4%,105%,106%,94.9%,100%,97.3%,99.6%,94.2%,96.6%,98.4%,95.7%,100%,92.3%,95.5%,> 10 µM,> 10 µM,> 10 µM,> 10 µM,> 10 µM,0,0,0,0,0
NC1(C(=O)O)CC1 [ACPC],92.3%,98.6%,104%,87.7%,105%,98.6%,93.4%,93.1%,102%,96.8%,103%,98.9%,90%,99.5%,93.4%,93.8%,96%,95.9%,96.3%,98.1%,102%,96.9%,96.7%,94.5%,98.4%,> 10 µM,> 10 µM,> 10 µM,> 10 µM,> 10 µM,0,0,0,0,0
NS(=O)(=O)c1nn2cc(-c3ccccc3)nc2s1 [AEG3482],99.9%,99%,102%,88.4%,89.4%,98%,104%,95.8%,95.1%,109%,87.5%,90.2%,93%,97%,94.6%,101%,98.1%,97.8%,99.2%,100%,97.2%,97%,96.1%,94.8%,92.1%,> 10 µM,> 10 µM,> 10 µM,> 10 µM,> 10 µM,0.4,0,0,0,0
O=C(Nc1cccc(C(F)(F)F)c1)Nc1cc(S(=O)(=O)NC2CC2)ccc1-c1ccsc1 [AGI-6780],94.2%,93%,99.8%,97.4%,85.7%,96.9%,90.4%,99%,103%,110%,93.3%,103%,94%,105%,86.5%,97.6%,98.9%,101%,92.3%,87.5%,95.1%,97.4%,93.5%,97.2%,106%,> 10 µM,> 10 µM,> 10 µM,> 10 µM,> 10 µM,0.4,0,0.1,0.4,0
CN[C@@H](C)C(=O)N[C@H](C(=O)N1CCC[C@H]1C(=O)N[C@H]1c2ccccc2C[C@H]1OCC#CC#CCO[C@@H]1Cc2ccccc2[C@@H]1NC(=O)[C@@H]1CCCN1C(=O)[C@@H](NC(=O)[C@H](C)NC)C1CCCCC1)C1CCCCC1 [AZD5582],93.3%,103%,102%,93.4%,82.4%,102%,99.8%,85.8%,73.2%,37.7%,107%,98.8%,94%,106%,87.8%,98.3%,104%,98.4%,101%,91.1%,100%,106%,119%,95.2%,136%,> 10 µM,0.927 µM,> 10 µM,> 10 µM,> 10 µM,1.1,6.8,0,0,0
CSc1ccc(C(=O)N[C@@H]2CCCC[C@@H]2NC(=O)CNC(=O)c2cc(C(F)(F)F)ccc2NC(=O)NC(C)C)cc1 [BMS-CCR2-22],93.2%,87.7%,94.5%,100%,89.6%,112%,94%,98.1%,101%,101%,108%,95.8%,101%,98%,88%,102%,101%,96.5%,103%,94.5%,101%,102%,102%,101%,95.1%,> 10 µM,> 10 µM,> 10 µM,> 10 µM,> 10 µM,0,0,0.1,0,0
c1ccc2nc(C3=NCCN3)ccc2c1 [BU-224],97.7%,96.9%,101%,88.7%,90.2%,98.5%,106%,106%,89.3%,119%,104%,94.3%,94.2%,99.8%,87.2%,99.8%,98.8%,99.2%,95.6%,98.8%,98.7%,99.5%,97.3%,102%,99%,> 10 µM,> 10 µM,> 10 µM,> 10 µM,> 10 µM,0.3,0,0.1,0,0
CO/N=C(\C(=O)N[C@@H]1C(=O)N2C(C(=O)O)=C(Cn3ccc(=N)n3CCO)CS[C@H]12)c1csc(N)n1 [Cefoselis sulfate],106%,97.6%,90.7%,106%,93.8%,95.8%,100%,95.7%,96.1%,104%,102%,116%,91.4%,103%,101%,96.6%,103%,93.8%,102%,101%,103%,102%,105%,97.2%,101%,> 10 µM,> 10 µM,> 10 µM,> 10 µM,> 10 µM,0,0,0,0,0
O=[N+]([O-])c1cc2nc(O)c(O)nc2cc1[N+](=O)[O-] [DNQX],86.4%,94.2%,97.4%,89.3%,94.4%,96.8%,96.3%,100%,97.4%,94.3%,102%,101%,95.6%,101%,102%,104%,96.8%,101%,93.6%,98%,86.8%,96.1%,89.2%,95.8%,102%,> 10 µM,> 10 µM,> 10 µM,> 10 µM,> 10 µM,0,0,0,0,0
CCC(C)(C)C(=O)C(=O)N1CCC[C@H]1C(=O)OCCCc1cccnc1 [GPI-1046],96.5%,96%,89.5%,105%,105%,101%,88.9%,106%,103%,113%,86.9%,98.6%,108%,90.7%,91.4%,97.6%,95.3%,91.7%,102%,104%,100%,96.4%,100%,91.6%,96.9%,> 10 µM,> 10 µM,> 10 µM,> 10 µM,> 10 µM,0,0,0.6,0,0
O=C1S/C(=C\c2ccc(OCc3cccc(B(O)O)c3)cc2)C(=O)N1Cc1ccc(F)cc1 [HA-130],93.4%,96%,97%,97.6%,92.8%,95.2%,110%,99.6%,105%,93.7%,102%,98.7%,94.8%,101%,103%,95.6%,97.5%,94.7%,98.7%,90.6%,95.5%,97.2%,103%,91.9%,93.4%,> 10 µM,> 10 µM,> 10 µM,> 10 µM,> 10 µM,0,0,0,0,0
